These results are taken from PMC8300937, “New azolyl-derivatives as multitargeting agents against breast cancer and fungal infections: synthesis, biological evaluation and docking study” (Journal of Enzyme Inhibition and Medicinal Chemistry, 2021).

Converted amounts (≈) assume the structure as drawn. “And” between values parts separate entries of the source, which are not always exact repeats. Identical values can stand only once. Like-named read-outs stand apart in the source and are kept apart here.

One series deals with hCYP19A1. Set-up: method as in PMID 26481362. To be noted: cocrystallized ligand of hCYP19A1; cited from earlier work.
The target in a further series is T1, aromatase (CYP19A) (Homo sapiens, UniProt P11511).
T1 construct: purchased BioVision
T1 sequence (P11511 1-503): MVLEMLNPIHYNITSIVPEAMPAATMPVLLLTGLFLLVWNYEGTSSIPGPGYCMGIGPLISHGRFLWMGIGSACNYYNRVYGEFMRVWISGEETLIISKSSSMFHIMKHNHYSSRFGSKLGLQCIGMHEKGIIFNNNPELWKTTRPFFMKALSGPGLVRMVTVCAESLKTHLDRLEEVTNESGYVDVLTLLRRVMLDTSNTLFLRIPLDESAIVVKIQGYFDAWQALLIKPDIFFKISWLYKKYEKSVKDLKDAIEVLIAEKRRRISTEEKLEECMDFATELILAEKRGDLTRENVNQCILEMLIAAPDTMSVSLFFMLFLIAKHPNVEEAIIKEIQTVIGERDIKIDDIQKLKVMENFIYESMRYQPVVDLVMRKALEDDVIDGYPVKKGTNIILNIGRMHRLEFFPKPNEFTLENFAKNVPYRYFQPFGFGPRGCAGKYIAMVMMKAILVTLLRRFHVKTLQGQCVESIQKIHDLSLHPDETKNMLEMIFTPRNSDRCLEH
Description: Aromatase inhibition, fluorimetric assay kit (Aromatase-CYP19A Inhibitor Screening kit, BioVision). To be noted: read-out: Aromatase % inhibition. In kind it is biochemical.

The next series has as its target T2, Recombinant human iNOS (Homo sapiens, UniProt P35228).
T2 construct: purchased Enzo Life Sciences, Inc
Description: iNOS inhibition, L-citrulline assay with fluorimetric (HPLC) detection. It is filed as biochemical. The note with it: for inhibition at 1 µM: read-out: iNOS % inhibition. As to the method:
The injection volume was 5 μL.
Recombinant human iNOS was purchased from Enzo Life Sciences, Inc. (New York, USA).

Series [1] can be described thus: Chemical stability in aqueous media at 37 °C (HPLC). To be noted: for Chemical stability in acidic medium: HCl solution pH = 2.0, 37 °C; for Chemical stability in acidic medium / Chemical stability in neutral medium: monitored for 24 h; for Chemical stability in neutral medium: Phosphate buffer pH = 7.4, 37 °C; for half-life at 0.05 mg/mL: NaOH solution pH = 9.0, 37 °C, read-out: half-life of hydrolysis in basic medium. It is filed as physicochemical. As to the method: Compounds 2 and 5 contain an ester linkage, therefore their chemical stability was evaluated. Phosphate buffer (pH = 7.4), HCl solution (pH = 2.0), NaOH solution (pH = 9.0) were adopted as media. […] Solutions were kept at 37 °C and monitored for 24 h.
A 0.01 M hydrochloric acid buffer (pH 2), as a non-enzymatic simulated gastric fluid (SGF), a 0.01 M phosphate buffer (pH 7.4) as non-enzymatic simulated intestinal fluid (SIF), and a 0.1 mM sodium hydroxide solution (pH 10) were used in this study. The reactions were initiated by adding 0.1 ml of compound stock solution (1 mg/mL in DMSO) to 1.9 ml aqueous buffer solution, in screw-capped vials at 37 ± 0.5 °C. Samples (5 µL) were withdrawn at appropriate intervals, i.e. after 5 min, 1 h, 2 h, 3 h, 4 h, 6 h, 8 h, and then after 24 h incubation time and analysed by HPLC.

The subject of series [2] is MCF-7 breast cancer cell line. Description: Cell metabolic activity (MTT assay). To be noted: Homo sapiens, read-out: IC50 cell metabolic activity (MTT). In kind it is cell-based. The procedure: (§1) Human breast cancer MCF-7 (HTB-22™) cells were purchased from ATCC® and maintained in Dulbecco’s Modified Eagle Medium (DMEM) high glucose supplemented with 10% of foetal bovine serum (FBS) and 1% of penicillin/streptomycin (all from Gibco-Thermofisher Scientific, MD, USA) at 37 °C and 5% CO2.
Cell metabolic activity of MCF-7 human breast cancer cells was assessed by MTT (3–(4,5-dimethylthiazol-2-yl)-2,5-diphenyltetrazolium bromide) test (Sigma Aldrich, Milan, Italy). Cells were seeded (0.1 × 10^4/well) in a 96-well tissue culture-treated plate (Falcon®, Corning Incorporated, NY, USA) and let them adhere for 24 h. Next, the cell monolayer was incubated in the presence of loading concentrations of compounds 2, 5 and 6 (0–400 µM) diluted in DMSO (final concentration 0.2%) for 24, 48 and 72 h. After the exposure time, cells were incubated with 100 μL/well of MTT (5 mg/mL) 1:10 with fresh growth medium (final concentration 0.5 mg/mL) for 4 h at 37 °C and 5% CO2. Finally, the MTT solution was removed and replaced with 100 µL/well of DMSO. Cells were incubated for an additional 20 min at 37 °C and 5% CO2 and afterward gently swirled for 10 min at room temperature. The optical density was measured at 540 nm by means of a spectrophotometer (Multiskan GO, Thermo Scientific, Monza, Italy). Results were expressed as the percentage of cells in the presence of vehicle (DMSO) set as 100% and each experiment was performed in triplicate (n = 3). Concentration-response curves and IC50 were fitted and calculated with the GraphPad Prism 5.0 (GraphPad Software, San Diego, CA, USA)[27].
In general terms: Tetrazolium assays rely on reduction of a dye to a coloured formazan, in cell work by metabolically active cells.

The subject of another series is MCF-7 cell line. Description: Cytotoxicity test (lactate dehydrogenase release). It is filed as cell-based, human. The note with it: MCF-7, 24 h, DMSO control set as 1. The procedure:
as §1
After 24 h, cell supernatants were collected from the MTT plate, centrifuged at 450 × g for 4 min and stored on ice. To quantify the cytotoxicity of loading concentrations of compounds 2, 5 and 6 (0–400 µM), the CytoTox 96® Non-Radioactive Cytotoxicity Assay (Promega Corporation, WI, USA) was performed. The CytoTox 96® Assay quantitatively measures lactate dehydrogenase (LDH), a stable cytosolic enzyme released upon cell lysis. The absorbance signal resulting from the conversion of a tetrazolium salt (iodonitrotetrazolium violet; INT) into a red formazan product was measured at 490 and 690 nm (background) with a spectrophotometer (Multiskan GO, Thermo Scientific, Monza, Italy). The results were normalised on MTT absorbances and expressed as fold increases on the LDH released by cultures in the presence of vehicle (DMSO) set as 1.

A further series concerns C. albicans ATCC 90028. Description: Antifungal broth microdilution (EUCAST), standard strain. In kind it is cell-based. To be noted: Candida albicans. The procedure:
(§2) The antifungal activity of the most representative compounds was evaluated versus one ATCC 90028 strain and 15 clinical isolates belonging to the most clinically relevant Candida spp. (C. albicans, C. tropicalis, and C. glabrata). All strains were stored at −80 °C in Sabouraud Broth (Oxoid LTD, Basingstoke, Hampshire, England) with 20% of glycerine until their use. The strains were grown on Sabouraud CAF agar (Thermo Fisher Scientific Waltham, MA, USA), and incubated for 24–48 h at 37 °C. […] The in vitro antifungal activity was determined by broth microdilution method with RPMI 1640 (Sigma-Aldrich. ST Louis, MO, USA) as recommended by EUCAST, and the E. Def 7.3, method document (http://www.eucast.org). […] Each plate included the following controls: (i) inoculum suspension (growth control), (ii) drug-free medium, (iii) medium with drug, and (iv) distilled water (used for the inoculum preparation). Fluconazole was used as a reference drug according to the EUCAST guidelines. The plates were incubated for 24 h at 37 °C, and then read with a plate reader at 530 nm. […] Three independent experiments were performed in triplicate.
(In general: In broth dilution the organism is exposed to a series of concentrations in liquid medium.)

Series [3] has as its system C. albicans clinical isolates. The series can be described thus: Antifungal broth microdilution (EUCAST), C. albicans clinical isolates. It is filed as cell-based. The note with it: Candida albicans. The procedure: as §2
Series [4] deals with C. tropicalis clinical isolates. Description: Antifungal broth microdilution (EUCAST), C. tropicalis clinical isolates. It is filed as cell-based, Candida tropicalis. As to the method:
as §2

For series [5], the system named is C. glabrata clinical isolates. The series can be described thus: Antifungal broth microdilution (EUCAST), C. glabrata clinical isolates. It is filed as cell-based, Candida glabrata. The procedure: as §2
Another series has as its target aromatase. To be noted: cited from earlier work.
A further series concerns the target iNOS. Also on record: method as in PMID 26481362. To be noted: cocrystallized ligand of iNOS; cited from earlier work.
The mark [6] stands for this setting: 10 µM (lowest concentration tested).

A word on the Ki: it is the equilibrium dissociation constant of an inhibitor or competing ligand from its target. One may read the inhibition as the relative decrease from the control value, in per cent. As a reminder, the half-life is the time needed for the level to fall by half in the phase considered. By IC50 is commonly meant the point on the concentration scale where inhibition reaches its midpoint. For orientation: MIC means the least concentration at which growth counts as inhibited. A word on the melting point: it is the temperature, or range, at which the solid turns liquid.

Description for aromatase (CYP19A): The aromatase inhibitory activity of the novel compounds was determined using a commercial fluorimetric kit (Aromatase CYP19A Inhibitor Screening kit, BioVision, Milpitas, CA, USA). The assay utilises a fluorogenic aromatase substrate, that is converted into a highly fluorescent metabolite detected in the visible range (Ex/Em = 488/527 nm), ensuring a high signal-to-background ratio with little interference by autofluorescence.

For the compound `C[C@]12CCC(=O)C=C1CC[C@@H]1[C@@H]2CC[C@]2(C)C(=O)CC[C@@H]12` [4-androstene-3,17-dione], on hCYP19A1, the Ki is 0.02 µM.
Turning to `O=C(OC(Cc1ccccc1)Cn1ccnc1)c1ccccc1` (centres unmarked) [Compound 2, 1-benzyl-2-(1H-imidazol-1-yl)ethyl benzoate], the melting point fell in the range of 68 to 69 °C. Besides, on aromatase (CYP19A), the inhibition at 1 µM was determined as 77 ± 1.8%. In addition, the inhibition at 1 µM on Recombinant human iNOS came to 100 ± 2.6%. For the same compound, in series [1], the “Chemical stability in acidic medium” value is listed as “stable” and the “Chemical stability in neutral medium” value is “stable”. Moreover, the half-life at 0.05 mg/mL in [1] (aqueous NaOH solution) was 48 min. Moreover, the IC50 in series [2] (MCF7, MCF-7, 24 h exposure) is > 200 µM. In the series with MCF-7 cell line (setting [6]), the “LDH released, fold increase vs control” value is given as 1.44 folds. Also, the MIC with C. albicans ATCC 90028 (ATCC90028, C. albicans ATCC 90028, 24 h, ≥50% growth inhibition, read-out: MIC) amounted to 16 mg/L (≈ 52.2 µM). Besides, the MIC in [3] (C. albicans 78/5) came to 16 mg/L (≈ 52.2 µM). In addition, the MIC in series [3] (C. albicans 231/5) was determined as 16 mg/L (≈ 52.2 µM). For the same compound, the MIC in series [3] (C. albicans 308/4) is 64 mg/L (≈ 209 µM). Moreover, the minimum inhibitory concentration (MIC) in series [3] (C. albicans 510/5) turned out to be 16 mg/L (≈ 52.2 µM). Moreover, the MIC in [3] (C. albicans 688/5) came out at 32 mg/L (≈ 104 µM). In series [3] (C. albicans 712/5), the MIC was determined as 32 mg/L (≈ 104 µM). In series [3] (C. albicans 887/5), the MIC turned out to be 16 mg/L (≈ 52.2 µM). The same compound returned an MIC in series [3] (C. albicans 943/5) of 16 mg/L (≈ 52.2 µM). This compound came in with an MIC in series [3] (C. albicans 1009/40) of 16 mg/L (≈ 52.2 µM). The minimum inhibitory concentration (MIC) in series [3] (C. albicans SF1) was 16 mg/L (≈ 52.2 µM). The same compound yielded an MIC in series [4] (C. tropicalis 295/5) of 64 mg/L (≈ 209 µM). The minimal inhibitory concentration (MIC) in [4] (Candida tropicalis, C. tropicalis 74/5, read-out: MIC) is 64 mg/L (≈ 209 µM). In addition, the minimum inhibitory concentration (MIC) in series [5] (C. glabrata 311/5) was >64 mg/L. In series [5] (C. glabrata 495/5), the minimum inhibitory concentration (MIC) is >64 mg/L. For the same compound, the MIC in [5] (Nakaseomyces glabratus, C. glabrata 365/5, read-out: MIC) is > 64 mg/L.
In the case of `COc1ccc(S(=O)(=O)N2CCCC(Cn3ccnc3)C2)cc1Br` (centres unmarked) [Compound 3o], the IC50 at aromatase (Figure 1) was 0.006 µM.
Compound `O=C(OC(Cc1ccccc1)Cn1ccnc1)c1cc([N+](=O)[O-])cc([N+](=O)[O-])c1` (centres unmarked) [Compound 5, 1-benzyl-2-(1H-imidazol-1-yl)ethyl 3,5-dinitrobenzoate] returned a melting point of 144 to 145 °C. At aromatase (CYP19A), the inhibition at 1 µM stood at 82 ± 3.8%. In addition, the iNOS % inhibition result on Recombinant human iNOS (compounds at 1 µM, normalised to 1400 W (positive control, 100% inhibition at 1 μM), triplicate, mean ± SD) is recorded as “complete enzyme inhibition”. In addition, the inhibition at 1 µM at Recombinant human iNOS was determined as 100 ± 1.7%. In addition, in series [1], the “Chemical stability in acidic medium” value was “stable” and the “Chemical stability in neutral medium” value is listed as “stable”. In series [1] (buffer), the half-life at 0.05 mg/mL was determined as 39 min. Moreover, the IC50 in series [2] (MCF7, 24 h) was determined as 120 µM. Moreover, the IC50 in [2] (MCF7, 48 h) was 82.5 µM. Also, the concentration for half-maximal inhibition (IC50) in series [2] (MCF7, 72 h) was determined as 68.8 µM. Further, the “LDH released, fold increase vs control” value in the series with MCF-7 cell line (setting [6]) stood at 1.91 folds. Further, the “LDH released, fold increase vs control” value in the series with MCF-7 cell line (concentrations after the IC50 (120 µM)) was 6.25 folds and 7.50 folds. The MIC against C. albicans ATCC 90028 (ATCC90028, 24 h) was > 64 mg/L.
`O=C(NCc1ccccc1)OC(Cn1ccnc1)c1ccccc1` (centres unmarked) [Compound 13a]: the aromatase % inhibition in the series on aromatase (at 1 µM) was 81%.
With `CCSC(=N)N` [ethylisothiourea], the inhibition constant Ki on iNOS is 0.005 µM.
